What was measured:
Sur-V89Y = biological target: T1, Sur-V89Y (Homo sapiens, UniProt O15392, V89Y); assay: ITC binding to Survivin mutant V89Y; details: in words
T1 construct: made in house; host or cells: bacteria
Description: (§1) FIG. 5 illustrates an analysis of S12-Survivin binding with isothermal titration calorimetry (ITC). Single-site point mutagenesis was performed to create the Survivin mutants F86A and V89Y. The native and the mutant proteins were produced and purified from bacteria.
(§2) In order to examine the specificity of the binding, we generated point mutations on the Survivin protein at the site presumably targeted by S12. The two mutations were substitutions of phenylalanine 86 with alanine (F86A) and valine 89 with tyrosine (V89Y). These two altered sites are also adjacent to the interface involved in dimerization of the Survivin protein. Based on structural analyses, we predict that alterations of either of these two amino acid residues may abolish the binding of S12 without affecting the overall structure of the Survivin protein.

[1] = test system: AsPC1 pancreatic cancer cells; assay: MTT tumor cell proliferation assay, AsPC1; assay type: cell-based, human; details: AsPC1, 5, 10, 20, or 50 μg/ml for 48 hours
Description: FIG. 3 illustrates the effect of S2 and its analogs on tumor cell proliferation. Cells were treated with DMSO or Survivin targeting molecules at the indicated concentration for 48 hours. The percentage of viable cells was evaluated by MTT assay. (A) AsPC1; (B) HeLa; (C) SKBR3; (D) DAOY.
FIG. 18 illustrates the effect of SBDO3, SN2, or SDC1 on tumor cell proliferation. (A) AsPC1 cells were treated with DMSO or the Survivin targeting molecules SBDO3 or SN2 at the indicated concentration for 48 hours. (B) SKBR3 cells were treated with DMSO or SDC1 for 48 hours. The percentage of viable cells was evaluated by MTT assay.
S2 and its analogs (S10, S11, S12, and S13) were tested for the ability to inhibit tumor cell proliferation by MTT assay. The AsPC1 pancreatic cancer cells were treated with DMSO, a control molecule SC2, or the Survivin-targeting compounds at the concentration of 5, 10, 20, or 50 μg/ml for 48 hours. The number of viable cells was evaluated by MTT.
SBDO3, SN2 and SDC1 were tested for the ability to inhibit tumor cell proliferation by MTT assay. The AsPC1 pancreatic cancer cells were treated with DMSO or the Survivin-targeting compounds at the concentration of 5, 10, 20, or 50 μg/ml for 48 hours. The number of viable cells was evaluated by MTT.

[2] = Toxicity observation in xenograft mice; assay type: in vivo; details: 5 to 50 mg/kg, xenograft studies
AsPC1 tumor xenograft = assay: Immunohistochemistry of tumor xenograft (Ki67, TUNEL); assay type: in vivo, athymic mice
Excerpt: FIG. 14 illustrates the immunohistochemistry analysis of tumor xenograft following treatment with S12 or PBS.
We performed immunohistochemistry studies to analyze the cellular effects of S12 treatment on the tumors. […] In addition, we examined apoptosis using the TUNEL assay.

HeLa cells [3] = assay: BrdU incorporation DNA synthesis assay (FACS), HeLa; assay type: cell-based, human; details: 4 hours treatment then one-hour BrdU
Description: BrdU-labeled cells were analyzed by FACS. The percentage of BrdU-positive cells is indicated.
HeLa cells were treated with S12, aphidicolin, or DMSO (control) for 4 hours. BrdU was then added to the medium followed by an additional incubation of 1 hour. The amount of BrdU was examined by staining with anti-BrdU antibody and FACS analysis. The percentage of BrdU-positive cells is shown.
To establish the specificity of the biological activities of the Survivin targeting we examined whether the compounds affect DNA synthesis. HeLa cells were treated with Aphidicolin, S2 or DMSO for 4 hours, followed by one-hour incubation with BrdU. The cells were then collected, fixed and stained with FITC-labeled anti-BrdU antibody.

Sur-F86A = biological target: T2, Sur-F86A (Homo sapiens, UniProt O15392, F86A); assay: ITC binding to Survivin mutant F86A; details: in words
T2 construct: made in house; host or cells: bacteria
Description: as §1, §2

Survivin protein = biological target: T3, Survivin protein (Homo sapiens, UniProt O15392); assay: Isothermal titration calorimetry (ITC) binding to native Survivin
T3 construct: made in house; host or cells: bacteria
Description: as §1
FIG. 16 illustrates the isothermal titration calorimetry profile of the binding of SBDO3 to the Survivin homodimer.
as §2
We tested the binding of the Survivin target molecules to Survivin by isothermal titration calorimetry.

HeLa cells [4] = assay: Cell cycle analysis of DNA content by PI staining and FACS, HeLa; assay type: cell-based, human; details: HeLa, FACS DNA content
Description: FIG. 7 illustrates the effect of S2 or S12 on cell cycle progression. HeLa cells were treated with S2, S12, S10, S1 (control compound), or DMSO (control), propidium iodide (PI) staining and FACS analysis were performed to quantify the DNA content of cells.
FIG. 9 illustrates the effect of S12 on mitosis. (A) HeLa cells were treated with S12, S2 or DMSO for 15 hours. The cells were then fixed and subjected to immunostaining using antibodies specific for Aurora B (green) and Survivin (red). DNA was stained with DAPI. Chromosome misalignment is indicated with the arrowheads. (B) Percentage of S12-treated cells in mitosis, in metaphase, in anaphase/telophase, or with misaligned chromosomes. (C) Percentage of S2-treated cells in mitosis, in metaphase, in anaphase/telophase, or with misaligned chromosomes. (D) HeLa cells were treated with S12 (10 μg/ml) or DMSO (control) for 15 hours. Cells were examined by PI staining of DNA content by FACS analysis.
FIG. 17 illustrates (A) FACS analysis of DNA content of HeLa cells treated with SBDO3. Note the accumulation of cells at the G2/M stage. Cell death was also observed (sub-G1 population); (B) Immuno-fluorescence microscopy analysis of cell treated with SBDO3. Note that the microtubule bundles of the mitotic spindle are disorganized. The chromosomes are not aligned properly and cells cannot go through metaphase.
The candidate Survivin-targeting molecules identified by the virtual screen were examined for the ability to inhibit cell proliferation and mitosis. HeLa cells were treated with the compounds at various concentrations for 15 hours followed by examination of the DNA content by FACS analysis. […] The effects of S2 inflicted on cell proliferation and viability are consistent with the anticipated outcome caused by the ablation of Survivin functions. We have extended these studies to test a number of molecules that are structurally similar to S2, including S10, S11, S12 and S13. […] S12 affected cell proliferation and viability, consistent with the anticipated outcome caused by ablation of Survivin functions.
We analyzed distribution of cells in the different stages of the cell cycle by FACS. […] In addition, the inhibitory effect of SBDO3 is dose dependent (FIG. 17A).
We also conducted immuno-fluorescence studies on SBDO3 treated HeLa cells.

T3 sequence (O15392 whole entry): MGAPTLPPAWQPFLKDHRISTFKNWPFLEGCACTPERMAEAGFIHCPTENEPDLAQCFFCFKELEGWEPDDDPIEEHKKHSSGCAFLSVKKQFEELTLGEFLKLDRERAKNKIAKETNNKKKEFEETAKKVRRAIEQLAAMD
T1 sequence (O15392 whole entry V89Y): as the sequence (O15392 whole entry) above, with V89Y counted along it
T2 sequence (O15392 whole entry F86A): as the sequence (O15392 whole entry) above, with F86A counted along it

## O=C(CC1(O)C(=O)Nc2ccc(Br)cc21)c1ccc2c(c1)OCO2 (stereo not drawn) [S12]
Sur-V89Y
  binding to mutant Sur-V89Y: did not bind
[1]
  inhibition of cell proliferation / cell viability: can inhibit cell proliferation and reduce cell viability in a dose-dependent manner
[2]
  toxic effects to the mice: no overtly toxic effects
AsPC1 tumor xenograft; immunohistochemistry of tumor xenograft
  proliferation of tumor cells (Ki67): drastically reduced proliferation of tumor cells
AsPC1 tumor xenograft; tumor xenograft
  apoptosis in the tumors (TUNEL assay): increased the levels of apoptosis
HeLa cells [3]
  DNA synthesis (BrdU incorporation): did not block DNA synthesis
Sur-F86A
  binding to mutant Sur-F86A: did not bind
Survivin protein; ITC, in words
  binding to the Survivin protein: can bind to the Survivin protein
Survivin protein; isothermal titration calorimetry, native Survivin
  N (ITC stoichiometry): 1.00
Survivin protein; isothermal titration calorimetry, native Survivin, read-out: K (ITC binding constant) (converted)
  Kd: 224 nM
HeLa cells [4]; 15 hours
  accumulation of cells in the G2/M stage: accumulation of cells in the G2/M stage
HeLa cells [4]
  sub-G1 population (cell death): increase of cells in the sub-G1 population
